Data published in patent US20060154927A1 (priority 2003, published 2006).
Read-outs that look alike come from different tables or passages of the source.

System: Pyricularia oryzae
Type: in vivo
Settings: individual active compound, rice seedlings cultivar Tai-Nong 67, protective spray, evaluated 6 days after inoculation

| Structure (SMILES) | Efficacy in % of the untreated control (1 ppm in the spray liquor) | Efficacy in % of the untreated control (0.25 ppm in the spray liquor) | Efficacy in % of the untreated control (4 ppm in the spray liquor) |
| --- | --- | --- | --- |
| CC1CCN(c2c(-c3c(F)cccc3Cl)c(Cl)nc3ncnn23)CC1 [A] | 11% |  |  |
| C[C@H](Nc1c(-c2c(F)cc(F)cc2F)c(Cl)nc2ncnn12)C(F)(F)F [B] | 22% |  |  |
| CC1CCN(c2c(-c3c(F)cc(F)cc3F)c(Cl)nc3ncnn23)CC1 [I, 5-chloro-7-(4-methylpiperidin-1-yl)-6-(2,4,6-trifluorophenyl)-[1,2,4]triazolo[1,5-a]pyrimidine] | 11% |  |  |
| COc1ccc(C(=CC(=O)N2CCOCC2)c2ccc(Cl)cc2)cc1OC [IIa, 3-(4-chlorophenyl)-3-(3,4-dimethoxyphenyl)-1-morpholin-4-ylpropenone] |  | 0% | 0% |
| COc1ccc(C(=CC(=O)N2CCOCC2)c2ccc(F)cc2)cc1OC [IIb, 3-(4-fluorophenyl)-3-(3,4-dimethoxyphenyl)-1-morpholin-4-ylpropenone] |  | 0% | 0% |
